# Calls of active or inactive are those of the source. No rule for the calls is given here.
# Test system: 697B cells, BCR-induced NF-kB luciferase reporter luminescence
# Experiment: B-cell receptor NF-kB reporter inhibition – 697B cells, luciferase luminescence, dose response (AID 489023)
row,SMILES,IC50
1,COc1ccc(/C=C2\SC(=S)N(CCC(=O)Nc3ccc(C(=O)O)cc3)C2=O)cc1OC,> 80 µM (inactive)
2,Oc1cc(O)cc(-c2cc3ccc(O)cc3o2)c1,> 80 µM (inactive)
3,COc1ccc(C(=O)N/N=C/c2sc(N3CCOCC3)nc2-c2ccccc2)cc1OC,14.4 µM
4,CCOc1ccc(-c2cc(CCCC(=O)NCc3ccc(C)cc3)no2)cc1,> 80 µM (inactive)
5,COC(=O)c1c(NC(=O)c2cccc([N+](=O)[O-])c2)sc(C(N)=O)c1C,45.6 µM (inactive)
6,COc1ccccc1/C=C1\SC(=S)N(CCC(=O)NC2=NCCS2)C1=O,> 80 µM (inactive)
7,C=CCOc1ccc(NC(=O)C(=O)NCCCn2ccnc2)cc1,> 80 µM (inactive)
8,Cc1nc(Nc2c(Cl)cccc2Cl)sc1C(=O)Nc1ccccc1,50.1 µM (inactive)
9,N#CC1=C(N)Oc2cc(Nc3ccccc3)ccc2C1c1ccncc1 (stereo not drawn),8.6 µM
10,CCC(C)NC(=O)c1c(N)n(/N=C/c2ccccn2)c2nc3ccccc3nc12 (stereo not drawn),23.2 µM (inactive)
11,CC(C)OCCCNC(=O)c1c(N)n(/N=C/c2ccccn2)c2nc3ccccc3nc12,> 80 µM (inactive)
12,CCOc1ccc(-c2nnc(SCC(=O)NC3CC3)o2)cc1,62 µM (inactive)
13,COc1ccc(-n2c(-c3ccc(Cl)cc3)c[n+]3c2CCc2ccccc2-3)cc1,> 80 µM (inactive)
14,CC(C)(O)/C=C/C(=O)[C@](C)(O)C1[C@H](O)C[C@@]2(C)C3CC=C4C(C[C@H](O)[C@@H](O)C4(C)C)[C@]3(C)C(=O)C[C@]12C (stereo partly drawn),35.1 µM (inactive)
15,COc1ccccc1/C=C1\SC(=S)N(CCC(=O)Nc2nnc(C)s2)C1=O,> 80 µM (inactive)
16,O=C(CN1C(=O)c2ccccc2S1(=O)=O)c1ccc(Cl)cc1Cl,0.44 µM
17,Cc1nn(-c2ccc(N3CCCCC3)nn2)c(C)c1CCC(=O)Nc1ccccc1F,> 80 µM (inactive)
18,COc1cc(NC(=O)c2ccco2)c(OC)cc1NC(=O)c1cc(OC)c(OC)c(OC)c1,24.9 µM (inactive)
19,COc1ccc(C(=O)N/N=C/c2ccc(OC)c(CN3CCCc4ccccc43)c2)cc1,> 80 µM (inactive)
20,O=[N+]([O-])c1ccc(Sc2cc[n+]([O-])c3ccccc23)c([N+](=O)[O-])c1,0.59 µM
21,O=S(=O)(c1cnc(Cl)c(Cl)c1)N1CCCc2ccccc21,33.8 µM (inactive)
22,COc1cc(OC)cc(-c2cc3nc(C)c(CCC(=O)Nc4nc(C)cs4)c(C)n3n2)c1,13.2 µM
23,CCOc1ccc(S(=O)(=O)NCc2ccncc2)cc1NC(=O)c1ccccc1,> 80 µM (inactive)
24,COc1ccc(/C=C2\SC(=S)N(CCC(=O)Nc3ccc(O)cc3)C2=O)cc1,> 80 µM (inactive)
25,Cc1noc(C)c1CSc1nc2[nH]ncc2c(=O)n1-c1ccccc1,> 80 µM (inactive)

row,SMILES,IC50
1,C=CCOC(=O)COc1cc(C)cc2oc(=O)c3c(c12)CCC3,> 80 µM (inactive)
2,CC1(c2nnc(-c3cccc(Cl)c3)o2)CC(c2cccc(Cl)c2)=NO1 (stereo not drawn),> 80 µM (inactive)
3,Cc1cc(C)nc(Sc2ccc([N+](=O)[O-])cc2[N+](=O)[O-])n1,1.95 µM
4,CCNC(=O)CCc1nc(-c2ccc(C(C)(C)C)cc2)no1,< 0.16 µM
5,C/C=C(/C)C(=O)OC1Cc2c(ccc3ccc(=O)oc23)OC1(C)C (stereo not drawn),> 80 µM (inactive)
6,O=C(Oc1cccc(/C=N/Nc2nc(Nc3ccccc3)nc(N3CCOCC3)n2)c1)c1ccco1,2.99 µM
7,COCCCNC(=O)COc1ccc(-c2nccc(-c3ccccn3)n2)cc1,19.4 µM
8,CCCNC(=O)CSCc1nc(-c2ccc(SC)cc2)oc1C,31.6 µM (inactive)
9,CCC(C)(C)c1ccc(OCCCC[n+]2ccccc2)c(C(C)(C)CC)c1,18.2 µM
10,COc1ccccc1/C=C1\SC(=S)N(CCC(=O)Nc2cc(C)on2)C1=O,36.8 µM (inactive)
11,CCc1ccc(/C=C2/SC(=S)N(CCC(=O)Nc3cccnc3)C2=O)cc1,0.85 µM
12,O=C(Cc1cccc2ccccc12)Nc1ccc(-c2cc3ccccc3oc2=O)cc1,< 0.16 µM
13,CC(C)C[C@@H](N)c1nnc(SCC(=O)c2ccc(Cl)cc2)o1,47.6 µM (inactive)
14,CCn1c(=O)cc(OCC(=O)Nc2ccc(OC)c(OC)c2)c2ccccc21,> 80 µM (inactive)
15,O=c1c(C=NCCCO)c(-c2ccccc2)[nH]n1-c1nc2ccccc2s1,9.07 µM
16,O=S(=O)(NCc1ccncc1)c1ccc(Br)s1,> 80 µM (inactive)
17,CCn1c(=O)cc(SCC(=O)N2CCN(C(=O)c3ccco3)CC2)c2ccccc21,> 80 µM (inactive)
18,CN1C(=O)CC(c2ccco2)Sc2ccccc21 (stereo not drawn),> 80 µM (inactive)
19,O=C(NNC(=O)c1ccccc1O)c1ccc(Cl)c(S(=O)(=O)N2CCc3ccccc32)c1,> 80 µM (inactive)
20,Cc1ccc(C(=O)CSc2nnc(COc3cccc(C)c3)o2)cc1,> 80 µM (inactive)
21,CC1CCC/C=C/C2CC(O)CC2C(O)/C=C/C(=O)O1 (stereo not drawn),> 80 µM (inactive)
22,O=C(NNC(=O)C12CC3CC(CC(Br)(C3)C1)C2)c1ccccc1F,12.1 µM
23,COc1ccc(Cc2nc(-c3ccc(NC(=O)c4cccnc4)cc3)no2)cc1,> 80 µM (inactive)
24,COc1cc(-c2cc(=O)c3c(O)c(OC)c(OC)c(OC)c3o2)cc(OC)c1OC,> 80 µM (inactive)
25,COc1ccc(/C=C2\SC(=S)N(CCC(=O)Nc3cccc(O)c3)C2=O)cc1,> 80 µM (inactive)

row,SMILES,IC50
1,Cc1ccc(S(=O)(=O)CC2CSc3nc4ccccc4n32)cc1 (stereo not drawn),> 80 µM (inactive)
2,Cc1cc(NC(=O)CCCN2C(=O)/C(=C/c3ccccc3Cl)SC2=S)no1,8.86 µM
3,CCOc1ccc(-c2nnc(SCC(=O)Nc3cc(C)on3)o2)cc1,12 µM
4,NC(=S)N=Nc1c(O)n(Cc2ccccc2)c2ccccc12,16.3 µM
5,COCCNC(=O)CSCc1nc(-c2ccc(SC)cc2)oc1C,4.56 µM
6,CC(C)(C)c1ccc(-c2noc(CCC(N)=O)n2)cc1,< 0.16 µM
7,COc1cccc(/C=C2/SC(=S)N(CCCC(=O)Nc3ccc(O)cc3)C2=O)c1,1.49 µM
8,CN(C)CCCN=Cc1c(-c2ccccc2)[nH]n(-c2nc3ccccc3s2)c1=O,5.81 µM
9,CC(C)(C)c1ccc(-n2ncc3c2CCCC3NC(=O)C2(C(N)=O)CC2)cc1 (stereo not drawn),> 80 µM (inactive)
10,O=C(CN1C(=O)c2ccccc2S1(=O)=O)c1ccccc1Cl,1.13 µM
11,CC(=C/c1ccco1)/C=N/NC(=O)CSc1nnc(SCc2ccc(C)cc2)s1,> 80 µM (inactive)
12,Cc1ccc(/C=C2\SC(=S)N(CCCC(=O)Nc3ccccn3)C2=O)cc1,0.37 µM
13,CCOc1ccc(-c2cc(CCCC(=O)NCCCOC)no2)cc1,> 80 µM (inactive)
14,Cc1ccc(/C=C2\SC(=S)N(CCCC(=O)NNC(=O)c3ccccc3O)C2=O)cc1,1.26 µM
15,Cc1ccc(C(=O)CSc2nnc(COc3ccccc3)o2)cc1,> 80 µM (inactive)
16,CCSc1ncc(Cl)c(C(=O)Nc2sc3c(c2C(=O)NCc2cccnc2)CCCC3)n1,> 80 µM (inactive)
17,CC(C)Cn1c([N+](=O)[O-])nc2c1c(=O)[nH]c(=O)n2C,5.67 µM
18,CCOc1cc(/C=N\Nc2nc(Nc3ccccc3)nc(N3CCOCC3)n2)ccc1OC(=O)c1ccco1,1.25 µM
19,N=c1ccn2c(n1)OC1C(O)C(CO)OC12 (stereo not drawn),< 0.16 µM
20,N=c1ccn2c(n1)O[C@H]1[C@H](O)[C@@H](CO)O[C@H]12,< 0.16 µM
21,COc1ccc(C(=O)Nc2cccc(NC(=O)c3ccc(OC)c(OC)c3)n2)cc1OC,3.64 µM
22,C=C(C)[C@@H]1CCC2(C(=O)O)CC[C@]3(C)[C@H](CC[C@@H]4[C@@]5(C)CCC(=O)C(C)(C)[C@@H]5CC[C@]43C)[C@@H]12 (stereo partly drawn),71.6 µM (inactive)
23,Cc1ccc(-c2nc(C(=O)NCC3CCCO3)cc3c2[nH]c2ccccc23)cc1 (stereo not drawn),12.8 µM
24,CCc1cccc(NC(=O)c2ccc(CNc3c(N4CCCC4)c(=O)c3=O)cc2)c1,> 80 µM (inactive)
25,O=C(N/N=C/c1ccc(Cl)cc1Cl)c1ccc(-n2cnnn2)cc1,> 80 µM (inactive)

row,SMILES,IC50
1,CCN(C(=O)CN1C(=O)NC(c2ccccc2)(c2ccc(C)c(C)c2)C1=O)C1CCCCC1 (stereo not drawn),48.4 µM (inactive)
2,CCc1ccc2nc(Nc3nc(COC)cc(=O)[nH]3)nc(C)c2c1,> 80 µM (inactive)
3,CC(C)(C)c1ccc(-c2noc(CCC(=O)N3CCOCC3)n2)cc1,51.6 µM (inactive)
4,CC(C)(C)c1ccc(-c2noc(CCC(=O)NCc3ccco3)n2)cc1,< 0.16 µM
5,O=C(CCCN1C(=O)/C(=C/c2ccccc2Cl)SC1=S)NNC(=O)c1ccccc1,12.5 µM
6,CC1CN(S(=O)(=O)c2ccc(C(=O)Nc3nc(-c4cc5ccccc5o4)cs3)cc2)CC(C)O1 (stereo not drawn),> 80 µM (inactive)
7,CCn1c(=O)cc(SCC(=O)N2CCCCC2)c2ccccc21,> 80 µM (inactive)
8,COc1ccc(NC(=O)c2cc3c(Cl)nc4ccccc4c3s2)cc1OC,60.3 µM (inactive)
9,COc1cc(-c2nc3n(n2)C(c2ccc(F)cc2)C2=C(CCCC2=O)N3)cc(OC)c1OC (stereo not drawn),65.5 µM (inactive)
10,CC(C)CN(C(=O)COC(=O)C12CC3CC(CC(C3)C1)C2)c1c(N)n(Cc2ccccc2)c(=O)[nH]c1=O,5.71 µM
11,CSc1ccc(-c2nc(CSCC(=O)NC3CC3)c(C)o2)cc1,2.44 µM
12,O=C(CSCCO)Nc1ccc(C23CC4CC(CC(C4)C2)C3)cc1,> 80 µM (inactive)
13,CN(C)C(=O)CCc1nc(-c2ccc(C(C)(C)C)cc2)no1,18.8 µM
14,CC1=CC(C)(C)Nc2ccc(OC(=O)CN3C(=O)c4ccccc4C3=O)cc21,4.73 µM
15,C#CCN(Cc1ccccc1)S(=O)(=O)C=C,21.3 µM (inactive)
16,Cc1cc(C)c(CN2CCN(C(=O)Cn3cnc4c(NCc5ccccc5)ncnc43)CC2)c(C)c1,52.7 µM (inactive)
17,Cc1ccc(Nc2nc(N3CCOCC3)nc(N3CCOCC3)n2)cc1C,1.33 µM
18,Cn1c(=O)n(C)c2cc(/C=C3/NC(=O)N(Cc4ccccc4)C3=O)ccc21,> 80 µM (inactive)
19,CCN(CC)CCCN=Cc1c(-c2ccccc2)[nH]n(-c2nc3ccccc3s2)c1=O,17.9 µM
20,Cc1c(CCC(=O)N2CCC[C@H]2C(=O)O)c(=O)oc2cc3oc4c(c3cc12)CCCC4,> 80 µM (inactive)
21,CCn1c(=O)cc(SCC(=O)N2CCN(C)CC2)c2ccccc21,> 80 µM (inactive)
22,O=C(CCCN1C(=O)/C(=C/c2ccccc2Cl)SC1=S)NNC(=O)c1ccc(Cl)cc1Cl,3.1 µM
23,COC(=O)C(C)Oc1cc(C)cc2oc(=O)c3c(c12)CCC3 (stereo not drawn),58 µM (inactive)
